System: NEP transfected MEF cells
Test: Effect of HSP70/HSP90 inhibitors on EV secretion from NEP transfected MEF cells (DLS goniometry)
Type: cell-based, mouse
Details: medium collected 24 h post-transfection
Procedure: After NEP transfection, the cell culture was replaced with fresh medium containing HSP70 inhibitor (VER 155008, 50 μM), HSP90 inhibitor (NVP-HSP990, 1 μM), or their mixture. Medium was collected at 24 h post-transfection, and EV numbers were detected by dynamic light scattering (DLS) goniometry;
During electroporation, Joule heating caused by the imposed electric field could tentatively increase the cell temperature to cause thermal shocking to the transfected cells. It is known that thermal shocking may increase cell secretion of EVs due to chaperone mediated autophage caused by the increase of heat shock proteins in cells (8-10). […] When HSP inhibitors were added in cell culture medium after electroporation, EV secretion could be suppressed. […] Here, the cell culture was replaced with fresh medium containing HSP70 inhibitor (VER 155008), HSP90 inhibitor (NVP-HSP990), or their mixture right after NEP transfection. Medium was collected at 24 h post-transfection and EV numbers were detected by dynamic light scattering (DLS) goniometry.

Row | Compound | decrease of EV secretion (HSP90 inhibitor 1 μM in fresh medium right after NEP transfection) | decrease of EV secretion (HSP70 inhibitor 50 μM in fresh medium right after NEP transfection)
1 | COc1cccc(-c2cc(F)ccc2[C@H]2Cc3nc(N)nc(C)c3C(=O)N2)n1 [NVP-HSP990] | 40% | –
2 | N#Cc1ccc(COC[C@H]2O[C@@H](n3c(NCc4ccc(Cl)c(Cl)c4)nc4c(N)ncnc43)[C@H](O)[C@@H]2O)cc1 [VER 155008] | – | 50%

Reference: patent publication US12359188B2, “Method for producing therapeutic exosomes from nanoelectroporation and other non-endocytic cell transfection” (Ohio State Innovation Foundation, priority 2017, dated 2025)
